According to ChEMBL document CHEMBL2413072, “Synthesis and in vitro anticancer studies of novel C-2 arylidene congeners of lantadenes” (2013):

How the values were obtained:
Assay type in all cases: functional
[1] = tested on: CAKI-1; experiment: Growth inhibition of human CAKI-1 cells assessed as cell growth at 10^-8 M by sulforhodamine B assay; conditions: read-out: Activity
[2] = tested on: NCI-H322M; experiment: Growth inhibition of human NCI-H322M cells assessed as cell growth at 10^-4 M by sulforhodamine B assay; conditions: read-out: Activity
[3] = tested on: HOP-62; experiment: Growth inhibition of human HOP62 cells assessed as cell growth at 10^-8 M by sulforhodamine B assay; conditions: read-out: Activity
[4] = tested on: OVCAR-4; experiment: Growth inhibition of human OVCAR4 cells assessed as cell growth at 10^-6 M by sulforhodamine B assay; conditions: read-out: Activity
[5] = tested on: OVCAR-3; experiment: Growth inhibition of human OVCAR3 cells assessed as cell growth at 10^-7 M by sulforhodamine B assay; conditions: read-out: Activity
[6] = tested on: RPMI-8226; experiment: Growth inhibition of human RPMI8226 cells assessed as cell growth at 10^-8 M by sulforhodamine B assay; conditions: read-out: Activity
[7] = tested on: HL-60(TB); experiment: Growth inhibition of human HL-60(TB) cells assessed as cell growth at 10^-6 M by sulforhodamine B assay; conditions: read-out: Activity
[8] = tested on: MDA-MB-435; experiment: Growth inhibition of human MDA-MB-435 cells assessed as cell growth at 10^-6 M by sulforhodamine B assay; conditions: read-out: Activity
[9] = tested on: RPMI-8226; experiment: Growth inhibition of human RPMI8226 cells assessed as cell growth at 10^-7 M by sulforhodamine B assay; conditions: read-out: Activity
[10] = tested on: IGROV-1; experiment: Growth inhibition of human IGROV1 cells assessed as cell growth at 10^-7 M by sulforhodamine B assay; conditions: read-out: Activity
[11] = tested on: RPMI-8226; experiment: Growth inhibition of human RPMI8226 cells assessed as cell growth at 10^-6 M by sulforhodamine B assay; conditions: read-out: Activity
[12] = tested on: K562; experiment: Growth inhibition of human K562 cells assessed as cell growth at 10^-6 M by sulforhodamine B assay; conditions: read-out: Activity
[13] = tested on: UACC-62; experiment: Growth inhibition of human UACC62 cells assessed as cell growth at 10^-4 M by sulforhodamine B assay; conditions: read-out: Activity
[14] = tested on: OVCAR-4; experiment: Growth inhibition of human OVCAR4 cells assessed as cell growth at 10^-4 M by sulforhodamine B assay; conditions: read-out: Activity
[15] = tested on: HCT-116; experiment: Growth inhibition of human HCT116 cells assessed as cell growth at 10^-8 M by sulforhodamine B assay; conditions: read-out: Activity
[16] = tested on: Malme-3M; experiment: Growth inhibition of human MALME-3M cells assessed as cell growth at 10^-7 M by sulforhodamine B assay; conditions: read-out: Activity
[17] = tested on: DU-145; experiment: Growth inhibition of human DU145 cells assessed as cell growth at 10^-4 M by sulforhodamine B assay; conditions: read-out: Activity
[18] = tested on: SNB-75; experiment: Growth inhibition of human SNB75 cells by sulforhodamine B assay
[19] = tested on: IGROV-1; experiment: Growth inhibition of human IGROV1 cells assessed as cell growth at 10^-6 M by sulforhodamine B assay; conditions: read-out: Activity
[20] = tested on: MDA-MB-231; experiment: Growth inhibition of human MDA-MB-231 cells assessed as cell growth at 10^-7 M by sulforhodamine B assay; conditions: read-out: Activity
[21] = tested on: LOX IMVI; experiment: Growth inhibition of human LOXIMVI cells assessed as cell growth at 10^-6 M by sulforhodamine B assay; conditions: read-out: Activity
[22] = tested on: MDA-MB-231; experiment: Growth inhibition of human MDA-MB-231 cells assessed as cell growth at 10^-6 M by sulforhodamine B assay; conditions: read-out: Activity
[23] = tested on: SK-MEL-5; experiment: Growth inhibition of human SK-MEL-5 cells assessed as cell growth at 10^-7 M by sulforhodamine B assay; conditions: read-out: Activity
[24] = tested on: U-251; experiment: Growth inhibition of human U251 cells by sulforhodamine B assay
[25] = tested on: SNB-19; experiment: Growth inhibition of human SNB19 cells assessed as cell growth at 10^-7 M by sulforhodamine B assay; conditions: read-out: Activity
[26] = tested on: HOP-62; experiment: Growth inhibition of human HOP62 cells assessed as cell growth at 10^-7 M by sulforhodamine B assay; conditions: read-out: Activity
[27] = tested on: NCI-H460; experiment: Growth inhibition of human NCI-H460 cells by sulforhodamine B assay
[28] = tested on: UO-31; experiment: Growth inhibition of human UO31 cells assessed as cell growth at 10^-7 M by sulforhodamine B assay; conditions: read-out: Activity
[29] = tested on: HT-29; experiment: Growth inhibition of human HT-29 cells assessed as cell growth at 10^-8 M by sulforhodamine B assay; conditions: read-out: Activity
[30] = tested on: SF-539; experiment: Growth inhibition of human SF539 cells assessed as cell growth at 10^-8 M by sulforhodamine B assay; conditions: read-out: Activity
[31] = tested on: HT-29; experiment: Growth inhibition of human HT-29 cells assessed as cell growth at 10^-6 M by sulforhodamine B assay; conditions: read-out: Activity
[32] = tested on: KM12; experiment: Growth inhibition of human KM12 cells by sulforhodamine B assay
[33] = tested on: RXF 393; experiment: Growth inhibition of human RXF393 cells by sulforhodamine B assay
[34] = tested on: OVCAR-5; experiment: Growth inhibition of human OVCAR5 cells assessed as cell growth at 10^-7 M by sulforhodamine B assay; conditions: read-out: Activity
[35] = tested on: SK-MEL-28; experiment: Growth inhibition of human SK-MEL-28 cells assessed as cell growth at 10^-7 M by sulforhodamine B assay; conditions: read-out: Activity
[36] = tested on: TK-10; experiment: Growth inhibition of human TK10 cells assessed as cell growth at 10^-8 M by sulforhodamine B assay; conditions: read-out: Activity
[37] = tested on: MOLT-4; experiment: Growth inhibition of human MOLT4 cells assessed as cell growth at 10^-4 M by sulforhodamine B assay; conditions: read-out: Activity
[38] = tested on: NCI-H226; experiment: Growth inhibition of human NCI-H226 cells assessed as cell growth at 10^-7 M by sulforhodamine B assay; conditions: read-out: Activity
[39] = tested on: CCRF-CEM; experiment: Growth inhibition of human CCRF-CEM cells assessed as cell growth at 10^-6 M by sulforhodamine B assay; conditions: read-out: Activity
[40] = tested on: ACHN; experiment: Growth inhibition of human ACHN cells assessed as cell growth at 10^-7 M by sulforhodamine B assay; conditions: read-out: Activity
[41] = tested on: SF-295; experiment: Growth inhibition of human SF295 cells assessed as cell growth at 10^-8 M by sulforhodamine B assay; conditions: read-out: Activity
[42] = tested on: PC-3; experiment: Growth inhibition of human PC3 cells by sulforhodamine B assay
[43] = read-out: LC50 (the source's name)
[44] = read-out: pLC50 (the source's name) (converted)

C/C=C(/C)C(=O)O[C@@H]1CC(C)(C)C[C@H]2C3=CC[C@@H]4[C@@]5(C)CCC(=O)C(C)(C)[C@@H]5CC[C@@]4(C)[C@]3(C)CC[C@@]12C(=O)O [LANTADENE A]
growth at 0.01 µM [1]: 96% | growth at 100 µM [2]: 17% | growth at 0.01 µM [3]: 92% | growth at 1 µM [4]: 86% | growth at 0.1 µM [5]: 109% | growth at 0.01 µM [6]: 102% | growth at 1 µM [7]: 80% | growth at 1 µM [8]: 90% | growth at 0.1 µM [9]: 91% | growth at 0.1 µM [10]: 111% | growth at 1 µM [11]: 64% | growth at 1 µM [12]: 87% | growth at 100 µM [13]: -70% | growth at 100 µM [14]: 29% | growth at 0.01 µM [15]: 94% | growth at 0.1 µM [16]: 96% | growth at 100 µM [17]: 29% | GI50 ([18]; read-out: GI50): 14.2 µM | CC50 [18, 43]: > 100 µM | TGI ([18]; read-out: TGI): > 100 µM | GI50 ([18]; read-out: pGI50 (converted)): 14.1 µM | CC50 [18, 44]: > 100 µM | TGI ([18]; read-out: pTGI (converted)): > 100 µM | growth at 1 µM [19]: 108% | growth at 0.1 µM [20]: 101% | growth at 1 µM [21]: 92% | growth at 1 µM [22]: 92% | growth at 0.1 µM [23]: 83% | GI50 ([24]; read-out: GI50): 3.99 µM | CC50 [24, 43]: > 100 µM | TGI ([24]; read-out: TGI): > 100 µM | GI50 ([24]; read-out: pGI50 (converted)): 3.98 µM | CC50 [24, 44]: > 100 µM | TGI ([24]; read-out: pTGI (converted)): > 100 µM | growth at 0.1 µM [25]: 89% | growth at 0.1 µM [26]: 95% | GI50 ([27]; read-out: GI50): 3.59 µM | LC50 ([27]; read-out: LC50): > 100 µM | TGI ([27]; read-out: TGI): > 100 µM | GI50 ([27]; read-out: pGI50 (converted)): 3.63 µM | LC50 ([27]; read-out: pLC50 (converted)): > 100 µM | TGI ([27]; read-out: pTGI (converted)): > 100 µM | growth at 0.1 µM [28]: 94% | growth at 0.01 µM [29]: 99% | growth at 0.01 µM [30]: 102% | growth at 1 µM [31]: 85% | GI50 ([32]; read-out: GI50): 3.52 µM | LC50 (50% net cell kill) ([32]; read-out: LC50): > 100 µM | TGI ([32]; read-out: TGI): > 100 µM | GI50 ([32]; read-out: pGI50 (converted)): 3.55 µM | LC50 (50% net cell kill) ([32]; read-out: pLC50 (converted)): > 100 µM | TGI ([32]; read-out: pTGI (converted)): > 100 µM | GI50 ([33]; read-out: GI50): 2.41 µM | CC50 [33, 43]: > 100 µM | TGI ([33]; read-out: TGI): 9.93 µM | GI50 ([33]; read-out: pGI50 (converted)): 2.4 µM | CC50 [33, 44]: > 100 µM | TGI ([33]; read-out: pTGI (converted)): 10 µM | growth at 0.1 µM [34]: 100% | growth at 0.1 µM [35]: 95% | growth at 0.01 µM [36]: 99% | growth at 100 µM [37]: 2% | growth at 0.1 µM [38]: 81% | growth at 1 µM [39]: 92% | growth at 0.1 µM [40]: 107% | growth at 0.01 µM [41]: 96% | GI50 ([42]; read-out: GI50): 2.53 µM | CC50 [42, 43]: > 100 µM | TGI ([42]; read-out: TGI): > 100 µM | GI50 ([42]; read-out: pGI50 (converted)): 2.51 µM | CC50 [42, 44]: > 100 µM | TGI ([42]; read-out: pTGI (converted)): > 100 µM
